Measurements taken from patent US20020137929A1, “1 - (3-heterocyclylphenyl) isothiourea, -isourea, -guanidine and -amidine herbicidal agents” (Intellectual Property Department, BASF Aktiengesellschaft, priority 1998, published 2002).

Experiments:
[1] = system: ZEAMX (Corn, Field); assay: Preemergence herbicidal evaluation; format: in vivo, Zea mays; details: rated 4-5 weeks after treatment
In short: (§1)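 Sown cups got a single aqueous acetone spray of test compound (roughly 0.0156–0.500 kg/ha) before seedlings emerged. Evaluation, 4–5 weeks on, used a 0–9 visual scale covering plant stand, vigor, size, malformation, chlorosis and general appearance compared with controls.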

[2] = system: GALAP (Galium); assay: Postemergence herbicidal evaluation; format: in vivo, Galium aparine; details: postemergence
In short: (§2)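 Scores (0–9) reflect plant stand, vigor, malformation, size, chlorosis and general appearance relative to control, read 4 to 5 weeks after treatment and averaged where tests were repeated. Application: about 0.0156–0.500 kg/ha sprayed at 40 psi onto two-week seedlings.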

[3] = system: ORYSAT (Rice, Tebonnet); assay: Postemergence herbicidal evaluation; format: in vivo, Oryza sativa, (L.) Tebonnet; details: postemergence
In short: as §2

[4] = system: CYPSE (Flatsedge); assay: Preemergence weed control under flooded paddy conditions; format: in vivo, Cyperus serotinus; details: rated 3-4 weeks after treatment
In short: (§3)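 Ratings on a 0-9 visual scale cover stand, vigor, malformation, size, chlorosis and overall appearance relative to a control, taken three to four weeks post-treatment. Application was into flood water over freshly sown silt loam at roughly 0.0313 to 0.500 kg/ha.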

[5] = system: GALAP (Galium); assay: Preemergence herbicidal evaluation; format: in vivo, Galium aparine; details: rated 4-5 weeks after treatment
In short: as §1

[6] = system: ECHCG (Barnyardgrass); assay: Postemergence herbicidal evaluation; format: in vivo, Echinochloa crus-galli; details: postemergence
In short: as §2

[7] = system: SAGPY (Arrowhead (Pygmaea)); assay: Preemergence weed control under flooded paddy conditions; format: in vivo, Sagittaria pygmaea; details: rated 3-4 weeks after treatment
In short: as §3

[8] = system: AMBEL (Ragweed, Common); assay: Postemergence herbicidal evaluation; format: in vivo, Ambrosia artemisifolia; details: postemergence
In short: as §2

[9] = system: CYPIR (Rice Flatsedge); assay: Preemergence weed control under flooded paddy conditions; format: in vivo, Cyperus iria; details: rated 3-4 weeks after treatment
In short: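 First, seeds or propagules go into the top 0.5 cm of silt loam; next, water is held 1.5 to 3 cm over the soil; then compound (50/50 acetone/water) is pipetted into it at about 0.0313 to 0.500 kg/ha; finally plants are rated visually 0-9 after three to four weeks.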

[10] = system: SETVI (Foxtail, Green); assay: Postemergence herbicidal evaluation; format: in vivo, Setaria viridis; details: postemergence
In short: as §2

[11] = system: CYPSE (Flatsedge); assay: Postemergence weed control under flooded paddy conditions; format: in vivo, Cyperus serotinus; details: postemergence weeds, 3-4 weeks after treatment
In short: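 Injury ratings (0–9 scale covering stand, vigor, malformation, size, chlorosis and overall appearance versus control) were made three to four weeks after treatment. Test material, about 0.0313 to 0.500 kg/ha a.i. in 50/50 v/v aqueous/acetone, was added to flood water 1.5 to 3 cm deep over 3 to 5 cm weeds and 1.5 to 2.5 leaf rice.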

[12] = system: GLXMAW (Soybean, Williams); assay: Postemergence herbicidal evaluation; format: in vivo, Glycine max, (L.) Merr. cv Williams; details: postemergence
In short: as §2

[13] = system: CASOB (Sicklepod); assay: Postemergence herbicidal evaluation; format: in vivo, Cassia obtusifolia; details: postemergence
In short: as §2

[14] = system: CASOB (Sicklepod); assay: Preemergence herbicidal evaluation; format: in vivo, Cassia obtusifolia; details: rated 4-5 weeks after treatment
In short: as §1

[15] = system: CHEAL (Lambsquarters, Common); assay: Postemergence herbicidal evaluation; format: in vivo, Chenopodium album; details: postemergence
In short: as §2

## CC1SC(=Nc2cc(-n3c(=O)cc(C(F)(F)F)n(C)c3=O)c(F)cc2Cl)N(C)C1=O (stereo not drawn) [Compound 9]
[1]; rate 0.0156 kg/ha
  ZEAMX preemergence herbicidal rating: 6.7
[1]; rate 0.0313 kg/ha
  ZEAMX preemergence herbicidal rating: 7.0
[1]; rate 0.0625 kg/ha
  ZEAMX preemergence herbicidal rating: 8.3
[1]; rate 0.1250 kg/ha
  ZEAMX preemergence herbicidal rating: 8.7
[1]; rate 0.2500 kg/ha
  ZEAMX preemergence herbicidal rating: 8.7
[2]; rate 0.0156 kg/ha
  GALAP herbicidal rating: 1.5
[2]; rate 0.0313 kg/ha
  GALAP herbicidal rating: 2.5
[2]; rate 0.0625 kg/ha
  GALAP herbicidal rating: 4.5
[2]; rate 0.1250 kg/ha
  GALAP herbicidal rating: 7.5
[3]; rate 0.0156 kg/ha
  ORYSAT herbicidal rating: 2.0
[3]; rate 0.0313 kg/ha
  ORYSAT herbicidal rating: 2.3
[3]; rate 0.0625 kg/ha
  ORYSAT herbicidal rating: 3.0
[3]; rate 0.1250 kg/ha
  ORYSAT herbicidal rating: 3.5
[4]; 0.0313 kg/ha
  Herbicidal rating CYPSE: 0.0
[4]; 0.0625 kg/ha
  Herbicidal rating CYPSE: 0.0
[4]; 0.1250 kg/ha
  Herbicidal rating CYPSE: 2.0
[4]; 0.2500 kg/ha
  Herbicidal rating CYPSE: 7.0
[5]; rate 0.0156 kg/ha
  GALAP preemergence herbicidal rating: 1.0
[5]; rate 0.0313 kg/ha
  GALAP preemergence herbicidal rating: 4.5
[5]; rate 0.0625 kg/ha
  GALAP preemergence herbicidal rating: 9.0
[5]; rate 0.1250 kg/ha
  GALAP preemergence herbicidal rating: 9.0
[5]; rate 0.2500 kg/ha
  GALAP preemergence herbicidal rating: 9.0
[6]; rate 0.0156 kg/ha
  ECHCG herbicidal rating: 0.0
[6]; rate 0.0313 kg/ha
  ECHCG herbicidal rating: 0.0
[6]; rate 0.0625 kg/ha
  ECHCG herbicidal rating: 2.0
[6]; rate 0.1250 kg/ha
  ECHCG herbicidal rating: 4.5
[7]; 0.0313 kg/ha
  Herbicidal rating SAGPY: 0.0
[7]; 0.0625 kg/ha
  Herbicidal rating SAGPY: 0.0
[7]; 0.1250 kg/ha
  Herbicidal rating SAGPY: 1.0
[7]; 0.2500 kg/ha
  Herbicidal rating SAGPY: 2.0
[8]; rate 0.0156 kg/ha
  AMBEL herbicidal rating: 2.0
[8]; rate 0.0313 kg/ha
  AMBEL herbicidal rating: 3.5
[8]; rate 0.0625 kg/ha
  AMBEL herbicidal rating: 7.5
[8]; rate 0.1250 kg/ha
  AMBEL herbicidal rating: 7.0
[9]; 0.0313 kg/ha
  Herbicidal rating CYPIR: 0.0
[9]; 0.0625 kg/ha
  Herbicidal rating CYPIR: 2.0
[9]; 0.1250 kg/ha
  Herbicidal rating CYPIR: 4.0
[9]; 0.2500 kg/ha
  Herbicidal rating CYPIR: 6.0
[10]; rate 0.0156 kg/ha
  SETVI herbicidal rating: 1.0
[10]; rate 0.0313 kg/ha
  SETVI herbicidal rating: 2.0
[10]; rate 0.0625 kg/ha
  SETVI herbicidal rating: 6.5
[10]; rate 0.1250 kg/ha
  SETVI herbicidal rating: 9.0
[11]; rate 0.0313 kg/ha
  Herbicidal rating CYPSE: 0.0
[11]; rate 0.0625 kg/ha
  Herbicidal rating CYPSE: 0.0
[11]; rate 0.1250 kg/ha
  Herbicidal rating CYPSE: 2.0
[11]; rate 0.2500 kg/ha
  Herbicidal rating CYPSE: 7.0
[12]; rate 0.0156 kg/ha
  GLXMAW herbicidal rating: 4.5
[12]; rate 0.0313 kg/ha
  GLXMAW herbicidal rating: 5.8
[12]; rate 0.0625 kg/ha
  GLXMAW herbicidal rating: 6.8
[12]; rate 0.1250 kg/ha
  GLXMAW herbicidal rating: 7.3
[13]; rate 0.0156 kg/ha
  CASOB herbicidal rating: 0.0
[13]; rate 0.0313 kg/ha
  CASOB herbicidal rating: 1.0
[13]; rate 0.0625 kg/ha
  CASOB herbicidal rating: 2.0
[13]; rate 0.1250 kg/ha
  CASOB herbicidal rating: 4.5
[14]; rate 0.0156 kg/ha
  CASOB preemergence herbicidal rating: 1.0
[14]; rate 0.0313 kg/ha
  CASOB preemergence herbicidal rating: 1.0
[14]; rate 0.0625 kg/ha
  CASOB preemergence herbicidal rating: 3.0
[14]; rate 0.1250 kg/ha
  CASOB preemergence herbicidal rating: 5.3
[14]; rate 0.2500 kg/ha
  CASOB preemergence herbicidal rating: 8.0
[15]; rate 0.0156 kg/ha
  CHEAL herbicidal rating: 6.5
[15]; rate 0.0313 kg/ha
  CHEAL herbicidal rating: 6.0
[15]; rate 0.0625 kg/ha
  CHEAL herbicidal rating: 9.0
[15]; rate 0.1250 kg/ha
  CHEAL herbicidal rating: 9.0
